Experimental data taken from article PMC5843810, “18th European Symposium on Radiopharmacy and Radiopharmaceuticals” (EJNMMI Radiopharmacy and Chemistry, 2016).
Read-outs that look alike come from different tables or passages of the source. One block for each molecule: values may come before it.

Assays:
in vivo = conditions: C57BL/6, mouse, αvβ3-positive melanoma tumor, iv, total radioactivity
Protocol: Materials and methods: cRGDfK was functionalized with N3CH2COOH and N3PEG7COOH at ε-amino group of lysine. […] Biodistribution study of the two radiotracers was carried out in C57BL/6 mice bearing αvβ3-positive melanoma tumors. The radioactive preparation (~3.7 MBq/animal, 100 μL) was injected intravenously through the lateral tail vein. At different time intervals after injection (30, 60, and 180 min), the animals (n = 4/time point) were sacrificed and the relevant organs excised for measurement of retained activity.

[1] = CHI(IAM) non-specific binding measurement; type: physicochemical; conditions: experimental non-specific binding measurement
Source text: Materials and methods: Similarly to the Ligand Efficiency (LE) index, we explored the usefulness of the Ligand Specific Efficiency index (LSE), which we defined as the ratio between affinity (expressed as e.g. pIC50 or pKd), and the logarithmic value of the experimental non-specific binding measurement, CHI(IAM).^[Jiang] LSE provides a measure of affinity, normalized to non-specific binding.

[2] = target: prostacyclin receptor (IPR) (Homo sapiens, UniProt P43119); test: Affinity for prostacyclin receptor (IPR); type: binding
Chain of prostacyclin receptor (IPR) (P43119 whole entry, species assumed): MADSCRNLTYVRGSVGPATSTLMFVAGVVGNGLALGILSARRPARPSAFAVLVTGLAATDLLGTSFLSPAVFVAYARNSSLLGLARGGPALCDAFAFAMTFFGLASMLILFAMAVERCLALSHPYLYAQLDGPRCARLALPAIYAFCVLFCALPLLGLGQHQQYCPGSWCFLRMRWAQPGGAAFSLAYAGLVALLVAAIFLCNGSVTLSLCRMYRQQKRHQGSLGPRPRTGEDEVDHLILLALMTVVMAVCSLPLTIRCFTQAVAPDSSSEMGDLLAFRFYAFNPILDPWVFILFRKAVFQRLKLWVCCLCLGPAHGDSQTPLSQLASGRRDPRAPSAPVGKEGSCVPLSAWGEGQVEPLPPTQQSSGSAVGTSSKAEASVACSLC
Source text: This concept was applied to the development of a prostacyclin receptor (IPR) tracer.

CSF-1R = target: T1, CSF-1R (Rattus norvegicus, UniProt Q00495); type: in vivo; conditions: female rats
T1 construct: from tissue; host or cells: living female rats (brain)
T1 sequence (Q00495 20-978): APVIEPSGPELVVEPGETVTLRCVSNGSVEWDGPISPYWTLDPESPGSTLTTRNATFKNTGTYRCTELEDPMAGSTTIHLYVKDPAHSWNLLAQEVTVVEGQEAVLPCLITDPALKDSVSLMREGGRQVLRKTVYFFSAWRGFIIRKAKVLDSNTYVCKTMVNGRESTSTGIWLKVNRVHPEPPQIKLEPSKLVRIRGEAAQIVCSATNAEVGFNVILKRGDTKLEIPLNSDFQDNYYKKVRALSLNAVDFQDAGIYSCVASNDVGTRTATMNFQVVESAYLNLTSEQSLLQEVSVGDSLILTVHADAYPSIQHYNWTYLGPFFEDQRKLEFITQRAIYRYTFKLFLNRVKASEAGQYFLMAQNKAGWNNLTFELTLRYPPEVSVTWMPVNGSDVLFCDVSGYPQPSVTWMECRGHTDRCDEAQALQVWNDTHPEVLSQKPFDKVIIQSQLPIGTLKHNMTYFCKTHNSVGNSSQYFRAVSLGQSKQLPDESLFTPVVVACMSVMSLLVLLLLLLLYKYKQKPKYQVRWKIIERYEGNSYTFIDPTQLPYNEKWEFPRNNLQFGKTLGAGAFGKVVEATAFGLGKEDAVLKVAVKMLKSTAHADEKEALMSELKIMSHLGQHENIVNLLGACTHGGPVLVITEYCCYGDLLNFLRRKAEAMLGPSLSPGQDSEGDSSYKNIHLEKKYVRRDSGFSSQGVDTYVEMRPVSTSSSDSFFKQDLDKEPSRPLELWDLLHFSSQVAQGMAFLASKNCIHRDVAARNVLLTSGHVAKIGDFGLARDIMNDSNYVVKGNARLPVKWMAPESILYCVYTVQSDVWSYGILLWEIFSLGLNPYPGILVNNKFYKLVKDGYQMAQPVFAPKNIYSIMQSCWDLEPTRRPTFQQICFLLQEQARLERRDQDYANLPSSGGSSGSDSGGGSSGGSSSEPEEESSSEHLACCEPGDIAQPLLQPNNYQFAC
Source text: (§1) Materials and methods: All the chemicals and reagents used in the experiments were obtained from commercial sources and used without any further purification. Synthesis of 5-cyano-N-(4-(4-methylpiperazine-1-yl)-2-(4-methylpiperidin-1-yl)phenyl)furan-2-carboxamide and 5-cyano-N-(2-(4-methylpiperidine-1-yl)-4-(piperazine-1-yl)phenyl)furan-2-carboxamide molecules were done according to literature methods available with slight modifications for radiolabeling experiments^3. The [^11C]-methyl triflate reacts with the precursor in presence of a base at room temperature for 2 minutes gives the carbon-11 radiolabeled [^11C]BA-1 which was purified by using semi-preparative reversed-phase high pressure liquid chromatography (RP-HPLC). The peak corresponding the reference compound will be collected and checked for the purity using analytical RP-HPLC. Baseline biodistribution study was performed at 2, 10, 30 and 60 min. respectively. Blocking experiment (10 mg/kg cold compound) was performed at 30 min time point in healthy female adult mice n=3 and compared with vehicle treated batch. In vitro autoradiography experiments were carried on rat brain slices by incubating tracer and cold blocking solution. MicroPET imaging studies were performed on a Focus™ 220 microPET scanner with female rats.

[3] = type: in vivo; conditions: healthy mice, 2 min
Source text: as §1

[4] = Plasma protein binding (acetonitrile precipitation, radioTLC); type: in vitro ADME, mice; conditions: mouse plasma
Protocol: (§2) Material and methods: [^18F]Amylovis® was synthesized by nucleophilic substitution of the tosyl group of the precursor. Thirty five healthy male Balb/C mice of 10-12 weeks were divided into […] of 5 animals each and injected with similar doses of [^18F]Amylovis® through a lateral tail vein. Blood samples were collected and the animals were sacrificed at 5, 15, 30, 45, 70 and 180 minutes. Organs of interest were removed and washed with saline. Radioactivity of blood, plasma, urine, faeces, brain, cerebellum, heart, liver, stomach, spleen, bowel, colon, left kidney, muscle, bone and tail was measured in a well counter. To assess protein binding, plasma samples were diluted with acetonitrile and centrifuged at 4000 g. Pellets of proteins and supernatants were separated and their radioactivity measured in a well counter. RadioTLC analysis of plasma were performed for the same purpose in silicagel 60 and mobile phase of acetonitrile/water (95/5). 20μL of each supernatant was analysed by HPLC-RP using a C18 column and acetonitrile/water (75/25) as mobile phase to identify plasma metabolites. Pharmacokinetic parameters (AUC, t1/2, Cmax, Cl, Vss) were calculated using non-compartmental analysis (NCA). Dynamic PET/CT images of healthy and transgenic APPSwe/PS1dE9 mice were acquired for 2.5 h after i.v. administration. […]

[5] = Biodistribution and pharmacokinetics in healthy Balb/C mice; type: in vivo
Protocol: as §2

MCHR1 = MCHR1 (Rattus norvegicus, UniProt P97639); conditions: rats, n=3
Chain of MCHR1 (P97639 whole entry): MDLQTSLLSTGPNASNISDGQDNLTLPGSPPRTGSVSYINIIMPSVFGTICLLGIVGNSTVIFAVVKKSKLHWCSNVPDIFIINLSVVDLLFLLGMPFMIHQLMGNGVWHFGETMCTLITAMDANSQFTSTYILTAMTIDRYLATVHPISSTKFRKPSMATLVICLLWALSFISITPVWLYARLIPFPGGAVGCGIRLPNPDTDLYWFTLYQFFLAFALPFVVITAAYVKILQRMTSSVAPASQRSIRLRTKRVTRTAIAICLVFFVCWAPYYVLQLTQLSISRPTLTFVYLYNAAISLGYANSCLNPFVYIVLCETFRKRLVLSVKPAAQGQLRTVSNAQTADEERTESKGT
Protocol: Materials and methods: In vivo experiments were conducted in naïve male Sprague Dawley rats. For small-animal PET/CT/MR experiments, rats were anesthetized by isoflurane. 25min after [^18F]FE@SNAP iv injection (47.8±1MBq; SA: 19.7±6GBq/μmol), vehicle (baseline group, n=3) or 15mg/kg SNAP-7941 (blocking group, n=3) were administered through the tail vein. 75min after tracer injection, the rats were sacrificed. Radioactivity concentrations in brain were calculated and expressed as SUVs. In another set of experiments, [^18F]FE@SNAP (51.3±26MBq; SA: 36.1±28GBq/μmol) as well as vehicle (baseline group, n=3) or 15mg/kg SNAP-7941 (blocking group, n=3) were injected into conscious freely moving rats via a permanent catheter implanted into the jugular vein, thus excluding an influence of anaesthesia. 45min after tracer application, rats were sacrificed, the brain was removed and cut for ex vivo autoradiography. Subsequently, brain slices were put on Phosphor Imager plates for exposure and analyzed with a Cyclone Phosphor Imager the following day. Regions of interest (ROIs) were drawn for the hypothalamic region, the ventricle and a non-target region.

[6] = over 6 h, analytical HPLC
Protocol: (§3) Materials and methods: [^18F]MEL050 was synthesized using a one-step bromine-for-fluorine nucleophilic heteroaromatic substitution. Briefly, [^18F]MEL050 was prepared from a bromo-precursor, using no-carrier-added 18F-KF-Kryptofix 222 (dimethylformamide, 150°C, 6 min), followed by preparative HPLC purification (C18 column (300x7.8 mm, 7 μm), isocratic elution with acetonitrile/20 mM ammonium bicarbonate (20:80, v/v), 3.0 ml/min) and cartridge-reformulation (Sep-Pak® Plus C18 environmental) of the collected fraction. Radiochemical and chemical purity, stability and specific activity measurements were monitored using analytical HPLC. Chemical identity of the labeled compound [^18F]MEL050 was assessed by co-injection with non-radioactive standard MEL050. Experimental model of pulmonary metastatic melanoma was obtained by IV injection of B16-F10 cells in NMRI mice. Mice (n=8) were imaged 15 days after inoculation, using INVEON microPET/CT device (Siemens), after IV injection of 0.36±0.04MBq/g of [^18F]MEL050. Dynamic and static acquisitions were acquired from time of injection to 2h after tracer injection. The maximum percentage of [^18F]MEL050 Injected Dose per g of lung tissue (%ID/g Max) was determined using ROIs manually drawn on 1h-post injection PET images, and correlated to ex-vivo findings.

[7] = test system: B16-F10 pulmonary metastatic melanoma; conditions: NMRI mice, B16-F10 lung metastases, 1h-post injection PET, n=8
Protocol: as §3

[8] = PET/CT imaging in nude mice bearing U87MG xenograft tumor; type: in vivo; conditions: mouse, 90 min post injection
Protocol: Materials and methods: The PET imaging properties of [^68Ga]FSC(succ-RGD)3 were studied in nude mice bearing M21 human melanoma xenografts and human glioblastoma U87MG xenograft tumor. A parallel PET imaging of ^68GaNODAGA-RGD in same mouse bearing U87MG xenograft tumor was performed as a comparison.

PSMA = target: T2, PSMA (Homo sapiens, UniProt Q04609); test: Competitive binding assay on PSMA-positive LNCaP cells against 68Ga-PSMA-10; conditions: against 68Ga-PSMA-10, cold reference compounds
T2 construct: endogenous in cells; host or cells: LNCaP
T2 sequence (Q04609 whole entry): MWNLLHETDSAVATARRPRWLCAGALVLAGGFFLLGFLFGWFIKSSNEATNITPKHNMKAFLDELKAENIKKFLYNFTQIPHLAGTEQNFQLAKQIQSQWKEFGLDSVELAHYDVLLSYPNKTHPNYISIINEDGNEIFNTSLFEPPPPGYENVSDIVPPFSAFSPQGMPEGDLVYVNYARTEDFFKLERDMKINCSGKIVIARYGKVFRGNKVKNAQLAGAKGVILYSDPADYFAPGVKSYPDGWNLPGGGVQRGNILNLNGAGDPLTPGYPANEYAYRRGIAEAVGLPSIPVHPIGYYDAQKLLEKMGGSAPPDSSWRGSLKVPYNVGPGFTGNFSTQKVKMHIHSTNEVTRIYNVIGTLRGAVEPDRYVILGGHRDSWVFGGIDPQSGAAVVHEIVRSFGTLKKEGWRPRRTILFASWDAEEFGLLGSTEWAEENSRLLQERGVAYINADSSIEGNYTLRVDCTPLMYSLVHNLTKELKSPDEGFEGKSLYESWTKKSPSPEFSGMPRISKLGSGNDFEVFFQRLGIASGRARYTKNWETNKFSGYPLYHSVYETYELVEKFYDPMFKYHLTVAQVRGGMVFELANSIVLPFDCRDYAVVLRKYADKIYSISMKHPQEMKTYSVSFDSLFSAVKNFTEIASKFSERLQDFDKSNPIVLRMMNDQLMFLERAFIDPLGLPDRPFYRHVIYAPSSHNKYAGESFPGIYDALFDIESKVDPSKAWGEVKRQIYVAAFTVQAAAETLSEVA
Protocol: (§4) Materials and methods: The PSMA binding motif Glu-NH-CO-NH-Lys was synthesized by a well-established method (4) using solid phase chemistry and subsequently an amino acid linker was built up by fmoc-based solid phase peptide synthesis (SPPS). The non-radioactive reference compounds were also prepared analogically and eventually conjugated by 6-fluoronicotinic acid. After separation from the resin and deprotection the peptidomimetics were labeled using the TFP-ester of 6-[^18F]fluoronicotinic acid as prosthetic group. The Ki values of all compounds were determined by competitive binding assays on PSMA-positive LNCaP cells against ^68Ga-PSMA-10 (5) using the respective cold reference compounds. Additionally, the cellular internalization of the radiofluorinated ligands was determined.

LNCaP cells = test: Cellular internalization of radiofluorinated PSMA ligands; type: cell-based; conditions: in vitro
Protocol: as §4

[9] = test system: U-87 MG and SKOV-3 tumours; conditions: 1 h after injection
Protocol: The in vitro binding characteristics of FPyPEGCBT-c(RGDfK) were analysed by standard binding assay in U-87 MG and SKOV-3 cancer models and its selectivity towards integrins by siRNA depletions. Its preclinical potential was studied in mice bearing subcutaneous tumours by ex vivo biodistribution studies and in vivo microPET/CT imaging.

Molecule: N=C(N)NCCC[C@@H]1NC(=O)[C@H](CCCCNC(=O)Cn2cc(C[C@H](N)C(=O)O)nn2)NC(=O)[C@@H](Cc2ccccc2)NC(=O)[C@H](CC(=O)O)NC(=O)CNC1=O [99mTc(CO)3-Pra-Tz-CH2-cRGDfK, metal not drawn]
- tissue uptake at 0.5 h (in vivo): 3.01 ± 0.77 %ID/g

Molecule: N=C(N)NCCC[C@@H]1NC(=O)[C@H](CCCCNC(=O)CCOCCOCCOCCOCCOCCOCCOCCn2cc(C[C@H](N)C(=O)O)nn2)NC(=O)[C@@H](Cc2ccccc2)NC(=O)[C@H](CC(=O)O)NC(=O)CNC1=O [99mTc(CO)3-Pra-Tz-PEG7-cRGDfK, metal not drawn]
- tissue uptake at 0.5 h (in vivo): 4.11 ± 0.51 %ID/g

Molecule: CC(C)Oc1ccc(Cc2ccc(NC3=NCCN3)cc2)cc1.Cl [Ro1138452]
- CHI(IAM) [1]: 58
- Ki [2]: 0.23 nM

- brain SUV, baseline (CSF-1R; baseline microPET): 1.2 SUV
- brain SUV, with blocking (CSF-1R; blocking with cold compound): 2 SUV
- lung uptake [3]: 14 % ID
- tracer uptake into the brain [3]: 4 % ID
Molecule: CC1CCN(c2cc(N3CCN(C)CC3)ccc2NC(=O)c2ccc(C#N)o2)CC1 [[11C]-BA1, 5-cyano-N-(4-(4-methylpiperazine-1-yl)-2-(4-methylpiperidin-1-yl)phenyl)furan-2-carboxamide]

Molecule: COc1ccc2cc(CCC[18F])ccc2c1 [[18F]Amylovis®, [^18F]-2-(3-fluoropropyl)-6-methoxynaphtalene]
- protein binding [4]: No significant protein binding
- Plasma T1/2 ([5]; Balb/C mice, i.v., non-compartmental analysis): 37 min
- blood brain barrier crossing ([5]; mice): crossed blood brain barrier

Molecule: COCC1=C(C(=O)OCC[18F])C(c2ccc(F)c(F)c2)N(C(=O)NCCCN2CCC(c3cccc(NC(C)=O)c3)CC2)C(=O)N1 (stereo not drawn) [[18F]FE@SNAP]
- SUV in the ventricular system, blocking group (MCHR1; 15mg/kg SNAP-7941 25min after tracer): 0.34±0.07 SUV
- SUV in the ventricular system, baseline group (MCHR1; vehicle 25min after tracer): 0.73±0.11 SUV

Molecule: CCN(CC)CCNC(=O)c1ccc([18F])nc1 [[18F]MEL050]
- product stability (RCP) [6]: > 98%
- %ID/g Max in lung tumours [7]: 4.7±2.6%

Molecule: C/C1=C/C(=O)N(O)CCC[C@H](NC(=O)CCC(=O)NCCCC[C@@H]2NC(=O)[C@@H](Cc3ccccc3)NC(=O)[C@H](CC(=O)O)NC(=O)CNC(=O)[C@H](CCCNC(=N)N)NC2=O)C(=O)OCC/C(C)=C\C(=O)N(O)CCC[C@H](NC(=O)CCC(=O)NCCCC[C@@H]2NC(=O)[C@@H](Cc3ccccc3)NC(=O)[C@H](CC(=O)O)NC(=O)CNC(=O)[C@H](CCCNC(=N)N)NC2=O)C(=O)OCC/C(C)=C\C(=O)N(O)CCC[C@H](NC(=O)CCC(=O)NCCCC[C@@H]2NC(=O)[C@@H](Cc3ccccc3)NC(=O)[C@H](CC(=O)O)NC(=O)CNC(=O)[C@H](CCCNC(=N)N)NC2=O)C(=O)OCC1 [[68Ga]FSC(succ-RGD)3, metal not drawn]
- tissue to tissue ratio at […] ([8]; tumour and kidneys, read-out: tumor/kidneys ratio): 1.3
- tissue to tissue ratio at […] ([8]; tumour and muscle, read-out: tumor/muscle ratio): 4.9

Molecule: PSMA-1007
- Ki (PSMA): 6 nM
- internalization ratio (LNCaP cells): about 70%

Molecule: [18F]FPyPEGCBT-c(RGDfK) (head to tail)
- tumour uptake, SKOV-3 [9]: 2.4 %ID/g
- tumour uptake, U-87 MG [9]: 2.9 %ID/g
